Assay results from ChEMBL document CHEMBL2440076, “New triarylpyrazoles as broad-spectrum anticancer agents: design, synthesis, and biological evaluation” (Eur J Med Chem, 2013).

Experiments:
SNB-19 [1] = assay: Growth inhibition of human SNB19 cells assessed as cell growth at 10 uM after 48 hrs by sulforhodamine B assay; type: functional; details: SNB-19, 48 h, read-out: Activity
MDA-MB-435 = assay: Growth inhibition of human MDA-MB-435 cells after 48 hrs by sulforhodamine B assay; type: functional, cell-based; details: MDA-MB-435, 48 h
HCT-15 [2] = assay: Growth inhibition of human HCT15 cells after 48 hrs by sulforhodamine B assay; type: functional; details: HCT-15, 48 h
M14 [3] = assay: Growth inhibition of human M14 cells after 48 hrs by sulforhodamine B assay; type: functional; details: M14, 48 h
TK-10 = assay: Growth inhibition of human TK10 cells assessed as cell growth at 10 uM after 48 hrs by sulforhodamine B assay; type: functional; details: TK-10, 48 h, read-out: Activity
[4] = Growth inhibition of human NCI-ADR-RES cells after 48 hrs by sulforhodamine B assay; type: functional
HCT-15 [5] = assay: Growth inhibition of human HCT15 cells assessed as cell growth at 10 uM after 48 hrs by sulforhodamine B assay; type: functional; details: HCT-15, 48 h, read-out: Activity
A498 = assay: Growth inhibition of human A498 cells after 48 hrs by sulforhodamine B assay; type: functional, cell-based; details: A498, 48 h
SK-MEL-28 = assay: Growth inhibition of human SK-MEL-28 cells assessed as cell growth at 10 uM after 48 hrs by sulforhodamine B assay; type: functional; details: SK-MEL-28, 48 h, read-out: Activity
UACC-257 = assay: Growth inhibition of human UACC257 cells after 48 hrs by sulforhodamine B assay; type: functional; details: UACC-257, 48 h
A549 [6] = assay: Growth inhibition of human A549/ATCC cells assessed as cell growth at 10 uM after 48 hrs by sulforhodamine B assay; type: functional; details: A549, 48 h, read-out: Activity
A549 [7] = assay: Growth inhibition of human A549/ATCC cells after 48 hrs by sulforhodamine B assay; type: functional; details: A549, 48 h
NCI-H322M = assay: Growth inhibition of human NCI-H322M cells after 48 hrs by sulforhodamine B assay; type: functional
[8] = Growth inhibition of human HCC2998 cells assessed as cell growth at 10 uM after 48 hrs by sulforhodamine B assay; type: functional; details: HCC 2998, 48 h, read-out: Activity
ACHN = assay: Growth inhibition of human ACHN cells assessed as cell growth at 10 uM after 48 hrs by sulforhodamine B assay; type: functional; details: read-out: Activity
SNB-19 [9] = assay: Growth inhibition of human SNB19 cells after 48 hrs by sulforhodamine B assay; type: functional; details: SNB-19, 48 h
SNB-75 = assay: Growth inhibition of human SNB75 cells after 48 hrs by sulforhodamine B assay; type: functional; details: SNB-75, 48 h
OVCAR-4 = assay: Growth inhibition of human OVCAR4 cells assessed as cell growth at 10 uM after 48 hrs by sulforhodamine B assay; type: functional; details: OVCAR-4, 48 h, read-out: Activity
PC-3 = assay: Growth inhibition of human PC3 cells after 48 hrs by sulforhodamine B assay; type: functional, cell-based; details: PC-3, 48 h
HCT-116 = assay: Growth inhibition of human HCT116 cells after 48 hrs by sulforhodamine B assay; type: functional; details: HCT-116, 48 h
SN12C = assay: Growth inhibition of human SN12C cells after 48 hrs by sulforhodamine B assay; type: functional
[10] = Growth inhibition of human Hs 578T cells after 48 hrs by sulforhodamine B assay; type: functional
RXF 393 = assay: Growth inhibition of human RXF393 cells after 48 hrs by sulforhodamine B assay; type: functional; details: RXF 393, 48 h
OVCAR-3 = assay: Growth inhibition of human OVCAR3 cells assessed as cell growth at 10 uM after 48 hrs by sulforhodamine B assay; type: functional; details: OVCAR-3, 48 h, read-out: Activity
SW-620 = assay: Growth inhibition of human SW620 cells assessed as cell growth at 10 uM after 48 hrs by sulforhodamine B assay; type: functional; details: SW-620, 48 h, read-out: Activity
U-251 = assay: Growth inhibition of human U251 cells after 48 hrs by sulforhodamine B assay; type: functional; details: U-251, 48 h
HT-29 [11] = assay: Growth inhibition of human HT-29 cells assessed as cell growth at 10 uM after 48 hrs by sulforhodamine B assay; type: functional; details: HT-29, 48 h, read-out: Activity
DU-145 [12] = assay: Growth inhibition of human DU145 cells assessed as cell growth at 10 uM after 48 hrs by sulforhodamine B assay; type: functional; details: DU-145, 48 h, read-out: Activity
KM12 = assay: Growth inhibition of human KM12 cells assessed as cell growth at 10 uM after 48 hrs by sulforhodamine B assay; type: functional; details: KM12, 48 h, read-out: Activity
DU-145 [13] = assay: Growth inhibition of human DU145 cells after 48 hrs by sulforhodamine B assay; type: functional; details: DU-145, 48 h
[14] = Growth inhibition of human Hs 578T cells assessed as cell growth at 10 uM after 48 hrs by sulforhodamine B assay; type: functional; details: read-out: Activity
M14 [15] = assay: Growth inhibition of human M14 cells assessed as cell growth at 10 uM after 48 hrs by sulforhodamine B assay; type: functional; details: M14, 48 h, read-out: Activity
786-0 = assay: Growth inhibition of human 786-0 cells assessed as cell growth at 10 uM after 48 hrs by sulforhodamine B assay; type: functional; details: 786-0, 48 h, read-out: Activity
HT-29 [16] = assay: Growth inhibition of human HT-29 cells after 48 hrs by sulforhodamine B assay; type: functional; details: HT-29, 48 h
SK-MEL-2 = assay: Growth inhibition of human SK-MEL-2 cells assessed as cell growth at 10 uM after 48 hrs by sulforhodamine B assay; type: functional; details: SK-MEL-2, 48 h, read-out: Activity
[17] = read-out: LC50 (the source's name)

Molecule `COc1cc(-c2nn(-c3cccc(NC(=O)Nc4cc(C(F)(F)F)cc(C(F)(F)F)c4)c3)cc2-c2ccncc2)ccc1Cl` has a growth at 10 µM (SNB-19 [1]) of 6.55%, a GI50 (MDA-MB-435) of 886 nM and an IC50 (MDA-MB-435) of 890 nM. The TGI (MDA-MB-435) was 1990 nM, the CC50 (MDA-MB-435; [17]) was 4460 nM and the GI50 (HCT-15 [2]) was 617 nM. It also gave an LC50 (HCT-15 [2]) of 4330 nM, a TGI (HCT-15 [2]) of 1640 nM and a GI50 (M14 [3]) of 808 nM. It also gave an LC50 (concentration killing 50% of cells) (M14 [3]) greater than 50000 nM, a TGI (M14 [3]) of 2550 nM and a growth at 10 µM (TK-10) of -26.7%. The GI50 [4] was 1010 nM, the TGI [4] was 5180 nM and the CC50 [4, 17] was greater than 50000 nM. The growth at 10 µM (HCT-15 [5]) was 2.59%, the GI50 (A498) was 612 nM and the IC50 (A498) was 610 nM. The TGI (A498) was 1900 nM, the CC50 (A498; [17]) was 7140 nM and the growth at 10 µM (SK-MEL-28) was -28.9%. For the same molecule, the GI50 (UACC-257) was 916 nM, the TGI (UACC-257) was 2350 nM and the CC50 (UACC-257; [17]) was 26200 nM. For the same molecule, the growth at 10 µM (A549 [6]) was -23.8%, the GI50 (A549 [7]) was 527 nM and the LC50 (concentration killing 50% of starting cells) (A549 [7]) was 18000 nM. The TGI (A549 [7]) was 2130 nM, the GI50 (NCI-H322M) was 1020 nM and the TGI (NCI-H322M) was 3000 nM. For the same molecule, the CC50 (NCI-H322M; [17]) was 29900 nM, the growth at 10 µM [8] was -10.8% and the growth at 10 µM (ACHN) was 10.6%. The GI50 (SNB-19 [9]) was 711 nM, the LC50 (concentration killing 50% of cells) (SNB-19 [9]) was greater than 50000 nM and the TGI (SNB-19 [9]) was 3670 nM. It also gave a GI50 (SNB-75) of 858 nM, an LC50 (lethal concentration, 50% net cell kill) (SNB-75) of 5310 nM and a TGI (SNB-75) of 2070 nM. It also gave a growth at 10 µM (OVCAR-4) of 17.2%, a GI50 (PC-3) of 250 nM and an IC50 (PC-3) of 250 nM. It also gave a TGI (PC-3) of 2070 nM, a CC50 (PC-3; [17]) greater than 50000 nM and a GI50 (HCT-116) of 643 nM. The TGI (HCT-116) was 1760 nM, the CC50 (HCT-116; [17]) was 4830 nM and the GI50 (SN12C) was 932 nM. The TGI (SN12C) was 3320 nM, the CC50 (SN12C; [17]) was greater than 50000 nM and the GI50 [10] was 1040 nM. It also gave a TGI [10] of 3680 nM, a CC50 [10, 17] greater than 50000 nM and a GI50 (RXF 393) of 869 nM. It also gave an LC50 (concentration killing 50% of cells) (RXF 393) of 4900 nM, a TGI (RXF 393) of 2060 nM and a growth at 10 µM (OVCAR-3) of -57.9%. For the same molecule, the growth at 10 µM (SW-620) was -2.89%, the GI50 (U-251) was 590 nM and the LC50 (concentration killing 50% of cells) (U-251) was 3180 nM. The TGI (U-251) was 1370 nM, the growth at 10 µM (HT-29 [11]) was -41.2% and the growth at 10 µM (DU-145 [12]) was 3.89%. For the same molecule, the growth at 10 µM (KM12) was -14.8%, the GI50 (DU-145 [13]) was 1310 nM and the LC50 (DU-145 [13]) was 21100 nM. The TGI (DU-145 [13]) was 5040 nM, the growth at 10 µM [14] was -25.8% and the growth at 10 µM (M14 [15]) was -42.1%. It also gave a growth at 10 µM (786-0) of -71.1%, a GI50 (HT-29 [16]) of 702 nM and a TGI (HT-29 [16]) of 1610 nM. For the same molecule, the CC50 (HT-29 [16]; [17]) was 3710 nM and the growth at 10 µM (SK-MEL-2) was -52.1%.
